Results published in patent publication US20050123633A1, “Biological activity-promoting compositions containing soybean germ-origin isoflavone aglycon” (priority 2002, published 2005).

Experiments:
Assay type in all cases: in vivo, rat
[1] = system: OVX female SD rats; experiment: Blood neutral fat (TG) measurement; conditions: after 28 days administration and 24-hour fasting, isoflavone aglycones 20 mg per kg body weight, 17 β-estradiol 1 μg per animal per day, mean ± SD
From the text: (§1) 1) Female SD rats (seven weeks) were procured, and were preliminarily kept for one week. The healthy female SD rats to be used as subjects (eight weeks) were raised in groups with uniform body weight. Rats other than those in the Sham group were ovarectomized (OVX). The Sham group was only laparotomized. After preliminarily keeping for one week after the OVX procedure, the rats were allowed free intake of high-fat feed having the composition shown in Table 2 for a period of 28 days starting on the day following preliminary keeping.
(§2) The rats were also allowed free intake of well water (3 ppm chlorine added). In addition, the environment of the animal facility had constant temperature and humidity of 23±2° C. and 55±10%. The atmosphere conditioning method involved ventilation (15 cycles/h), and the light time was from 8 am to 8 pm. The keeping apparatuses were stainless steel metabolic cages.
(§3) Upon completion of administration on day 28, 24-hour fasting was performed, and the rats were necropsied under ether anesthetization in order to collect blood from the abdominal aorta. Regarding serum cholesterol, measurement of total serum cholesterol, HDL cholesterol, LDL cholesterol and cholesterol ester ratio were carried out, and blood neutral fat (TG), blood free fatty acid (FFA) and leptin were measured using enzymatic methods. In addition, the uterus weight per 100 g body weight was measured for the necropsied females rats. Also, body fat determination was made by measuring the weight of removed posterior abdominal wall fat, mesenteric fat, perirenal fat and periovarian fat per 100 g of body weight. The thymus weights for the necropsied female rats were measured based on the weight per 100 g of body weight.
(§4) The results of measurement for each group were expressed as mean values±standard deviations for each of the measured parameters, and significant differences were determined using Student's t-test. Evaluation was made using the two-sided test, where significance levels were taken as 5 and 1%.

[2] = system: OVX female SD rats; experiment: Thymus weight measurement; conditions: for Change in Thymus Weight: at necropsy after 28 days, isoflavone aglycones 20 mg per kg body weight, 17 β-estradiol 1 μg per animal per day, mean ± SD
From the text: as §1, §2, §3, §4

[3] = system: OVX female SD rats; experiment: Urine NO2/NO3 measurement (24-hour accumulated urine); conditions: 17 β-estradiol 1 μg per animal per day, mean ± SD
From the text: as §1, §2, §3, §4

[4] = system: OVX female SD rats; experiment: Blood free fatty acid (FFA) measurement; conditions: after 28 days administration and 24-hour fasting, isoflavone aglycones 20 mg per kg body weight, 17 β-estradiol 1 μg per animal per day, mean ± SD
From the text: as §1, §2, §3, §4

[5] = system: OVX female SD rats; experiment: Body fat determination (weight of removed fat); conditions: at necropsy after 28 days, isoflavone aglycones 20 mg per kg body weight, 17 β-estradiol 1 μg per animal per day, mean ± SD
From the text: as §1, §2, §3, §4

[6] = system: OVX female SD rats; experiment: Serum cholesterol measurement; conditions: after 28 days administration and 24-hour fasting, isoflavone aglycones 20 mg per kg body weight, 17 β-estradiol 1 μg per animal per day, mean ± SD; for Cholesterol ester (%): cholesterol ester ratio
From the text: as §1, §2, §3
(§5) Evaluation was made using the two-sided test, where significance levels were taken as 5 and 1%.

[7] = system: OVX female SD rats; experiment: Leptin level measurement; conditions: after 28 days administration and 24-hour fasting, isoflavone aglycones 20 mg per kg body weight, 17 β-estradiol 1 μg per animal per day, mean ± SD
From the text: as §1, §2, §3, §4

[8] = system: OVX female SD rats; experiment: Body weight measurement in OVX rats on high-fat feed; conditions: 17 β-estradiol 1 μg per animal per day, mean ± SD
From the text: as §1, §2
The body weights of all rats were measured once on days 0, 7, 14, 21 and 28.
as §5

[9] = system: OVX female SD rats; experiment: Overall evaluation of biological activity promotion over all measured parameters; conditions: at an administered amount of 1/4000 relative to isoflavone aglycones
From the text: as §1
Consequently, results were obtained that caused concern over side effects when administered at high dosages.

[10] = day 0, isoflavone aglycones 20 mg per kg body weight
[11] = day 7, isoflavone aglycones 20 mg per kg body weight
[12] = day 14, isoflavone aglycones 20 mg per kg body weight
[13] = day 21, isoflavone aglycones 20 mg per kg body weight
[14] = day 28, isoflavone aglycones 20 mg per kg body weight
[15] = day 0, isoflavone aglycones 20 mg per kg body weight in feed
[16] = day 7, isoflavone aglycones 20 mg per kg body weight in feed
[17] = day 14, isoflavone aglycones 20 mg per kg body weight in feed
[18] = day 21, isoflavone aglycones 20 mg per kg body weight in feed
[19] = day 28, isoflavone aglycones 20 mg per kg body weight in feed

SMILES	Change in TG (blood neutral fat) [1] [mg/dL]	Change in Thymus Weight [2]	Change in NO2/NO3 (urinary) [3, 10] [µmol]	Change in NO2/NO3 (urinary) [3, 11] [µmol]	Change in NO2/NO3 (urinary) [3, 12] [µmol]	Change in NO2/NO3 (urinary) [3, 13] [µmol]	Change in NO2/NO3 (urinary) [3, 14] [µmol]	Change in FFA (blood free fatty acid) [4] [mg/dL]	Body Fat: Mesenteric fat [5]	Body Fat: Periovarian fat [5]	Body Fat: Perirenal fat [5]	Body Fat: posterior abdominal wall fat [5]	Serum LDL cholesterol [6] [mg/dL]	Serum Total cholesterol [6] [mg/dL]	Change in Leptin [7] [ng/mL]	Change in Body Weight [8, 15] [g]	Change in Body Weight [8, 16] [g]	Change in Body Weight [8, 17] [g]	Change in Body Weight [8, 18] [g]	Change in Body Weight [8, 19] [g]	also measured
O=c1c(-c2ccc(O)cc2)coc2cc(O)cc(O)c12 [genistein]	116.9 ± 9.90	0.110 ± 0.02 g/100 g; body weight	6.1 ± 0.34	6.4 ± 0.39	6.3 ± 0.56	6.2 ± 0.40	6.4 ± 0.4	400.0 ± 19.01	2.6 ± 0.14 g/100 g; body weight	3.0 ± 0.26 g/100 g; body weight	3.7 ± 0.17 g/100 g; body weight	2.8 ± 0.25 g/100 g; body weight	40.6 ± 1.76	85.8 ± 2.53	1.9 ± 0.25	197.3 ± 10.18	216.9 ± 8.53	231.9 ± 9.77	249.4 ± 9.81	266.8 ± 8.6	–
O=c1c(-c2ccc(O)cc2)coc2cc(O)ccc12 [daidzein]	104.8 ± 16.71	0.130 ± 0.02 g/100 g; body weight	6.0 ± 0.53	6.4 ± 0.54	6.4 ± 0.43	6.6 ± 0.40	6.0 ± 0.40	379.2 ± 24.45	2.8 ± 0.18 g/100 g; body weight	3.1 ± 0.17 g/100 g; body weight	3.5 ± 0.20 g/100 g; body weight	2.6 ± 0.23 g/100 g; body weight	36.3 ± 3.45	81.8 ± 2.57	1.7 ± 0.12	191.0 ± 7.31	216.1 ± 6.86	230.6 ± 6.58	245.4 ± 7.07	257.4 ± 7.71	thymus weight relative to the comparative group 1 (Sham) and the test group 1 (OVX), in words ([2]; 28 days): increase in weight; Serum HDL cholesterol [6]: 42.6 ± 2.25 mg/dL; Cholesterol ester (%) [6]: 70.1 ± 3.01%
C[C@]12CC[C@@H]3c4ccc(O)cc4CC[C@H]3[C@@H]1CC[C@@H]2O [estradiol, 17 β-estradiol]	105.1 ± 5.37	0.112 ± 0.01 g/100 g; body weight	6.1 ± 0.29	7.0 ± 0.60	7.8 ± 0.59	9.0 ± 0.76	9.4 ± 0.39	362.8 ± 24.41	2.5 ± 0.19 g/100 g; body weight	2.8 ± 0.27 g/100 g; body weight	3.2 ± 0.22 g/100 g; body weight	1.9 ± 0.10 g/100 g; body weight	38.2 ± 1.74	72.1 ± 3.86	0.7 ± 0.28	192.5 ± 7.12	–	–	–	–	stimulatory (agonistic) action with respect to biological activity, in words [9]: high; Serum HDL cholesterol [6]: 35.9 ± 3.38 mg/dL; Cholesterol ester (%) [6]: 70.7 ± 2.80%
